Assay results: patent US9452169B2, “Substituted diketopiperazines and their use as oxytocin antagonists” (Glaxo Group Limited, priority 2003, dated 2016)

Test system: rats
Conditions: rat, in vivo, 30 mg/kg

**Q.** How did the adverse toxicological effects turn out when `CC[C@H](C)[C@@H]1C(=O)N[C@H](C2Cc3ccccc3C2)C(=O)N1[C@@H](C(=O)N1CCOCC1)c1coc(C)n1` [Example 1, (3R,6R)-3-(2,3-dihydro-1H-inden-2-yl)-1-[(1R)-1-(2-methyl-1,3-oxazol-4-yl)-2-(4-morpholinyl)-2-oxoethyl]-6-[(1S)-1-methylpropyl]-2,5-piperazinedione] was run?
**A.** no adverse toxicological effects were observed
